Data from ChEMBL document CHEMBL5465560, “Selectivity Literature for EUbOPEN Chemogenomic Library” (2024).
Values belong to the compound of their own block, whether it stands above or below them.

Experiments:
[1] = molecular target: T1, Mitogen-activated protein kinase kinase kinase 6 (Homo sapiens) (UniProt O95382); experiment: Selectivity interaction (ActivX KiNativ screen (kinase selectivity in THP-1 cell lysates)) EUB0000639a MAP3K6; type: subcellular; conditions: lysate, at 0.01 µM
T1 sequence (whole entry): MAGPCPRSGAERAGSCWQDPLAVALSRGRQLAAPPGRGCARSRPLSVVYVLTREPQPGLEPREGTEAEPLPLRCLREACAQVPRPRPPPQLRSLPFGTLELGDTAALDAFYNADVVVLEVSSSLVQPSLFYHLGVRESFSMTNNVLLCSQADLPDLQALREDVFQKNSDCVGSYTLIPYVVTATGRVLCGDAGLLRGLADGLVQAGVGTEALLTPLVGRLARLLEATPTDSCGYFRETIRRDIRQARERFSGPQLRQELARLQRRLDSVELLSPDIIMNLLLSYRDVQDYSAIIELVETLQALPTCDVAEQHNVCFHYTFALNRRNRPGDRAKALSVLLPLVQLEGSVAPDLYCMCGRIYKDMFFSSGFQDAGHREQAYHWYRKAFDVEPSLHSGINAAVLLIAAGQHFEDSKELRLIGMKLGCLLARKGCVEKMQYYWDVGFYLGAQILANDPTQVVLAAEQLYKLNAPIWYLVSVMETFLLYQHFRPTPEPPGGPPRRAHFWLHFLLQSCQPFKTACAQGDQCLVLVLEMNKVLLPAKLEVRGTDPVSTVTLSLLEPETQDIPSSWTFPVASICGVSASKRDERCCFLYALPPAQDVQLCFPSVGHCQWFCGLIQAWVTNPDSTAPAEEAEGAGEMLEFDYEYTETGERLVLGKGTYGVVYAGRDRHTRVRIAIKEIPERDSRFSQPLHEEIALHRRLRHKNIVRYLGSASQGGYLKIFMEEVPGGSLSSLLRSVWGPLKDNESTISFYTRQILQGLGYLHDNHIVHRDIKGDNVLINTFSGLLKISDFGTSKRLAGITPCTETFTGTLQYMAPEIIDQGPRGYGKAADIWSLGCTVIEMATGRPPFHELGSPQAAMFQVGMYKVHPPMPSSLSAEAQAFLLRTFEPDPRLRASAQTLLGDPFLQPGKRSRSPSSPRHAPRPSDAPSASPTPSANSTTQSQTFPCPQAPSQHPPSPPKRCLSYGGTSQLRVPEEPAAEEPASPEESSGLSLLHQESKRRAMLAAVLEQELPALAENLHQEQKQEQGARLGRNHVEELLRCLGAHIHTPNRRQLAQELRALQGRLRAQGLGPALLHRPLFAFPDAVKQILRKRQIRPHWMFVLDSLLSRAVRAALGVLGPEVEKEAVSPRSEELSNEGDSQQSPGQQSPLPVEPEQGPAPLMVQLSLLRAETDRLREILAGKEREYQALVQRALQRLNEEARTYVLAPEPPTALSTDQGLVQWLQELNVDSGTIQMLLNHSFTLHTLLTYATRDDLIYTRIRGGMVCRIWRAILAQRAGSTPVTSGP

[2] = molecular target: Casein kinase I isoform gamma-3 (Homo sapiens) (UniProt Q9Y6M4); experiment: Selectivity interaction (KinomeScan (DiscoverX)) EUB0000229b CSNK1G3; conditions: at 10 µM
[3] = molecular target: Leukocyte tyrosine kinase receptor (Homo sapiens, UniProt P29376); experiment: Selectivity interaction (ProQinase) EUB0000171b LTK
[4] = molecular target: Calcium/calmodulin-dependent protein kinase type 1D (Homo sapiens) (UniProt Q8IU85); experiment: Selectivity interaction (SelectScreen profiling (Invitrogen)) EUB0000607a CAMK1D; conditions: at 2 µM
[5] = molecular target: T2, Cyclin-dependent kinase 11A (Homo sapiens) (UniProt Q9UQ88); experiment: Selectivity interaction (KinomeScan (DiscoverX)) EUB0000607a CDK11A; conditions: at 10 µM
T2 sequence (whole entry): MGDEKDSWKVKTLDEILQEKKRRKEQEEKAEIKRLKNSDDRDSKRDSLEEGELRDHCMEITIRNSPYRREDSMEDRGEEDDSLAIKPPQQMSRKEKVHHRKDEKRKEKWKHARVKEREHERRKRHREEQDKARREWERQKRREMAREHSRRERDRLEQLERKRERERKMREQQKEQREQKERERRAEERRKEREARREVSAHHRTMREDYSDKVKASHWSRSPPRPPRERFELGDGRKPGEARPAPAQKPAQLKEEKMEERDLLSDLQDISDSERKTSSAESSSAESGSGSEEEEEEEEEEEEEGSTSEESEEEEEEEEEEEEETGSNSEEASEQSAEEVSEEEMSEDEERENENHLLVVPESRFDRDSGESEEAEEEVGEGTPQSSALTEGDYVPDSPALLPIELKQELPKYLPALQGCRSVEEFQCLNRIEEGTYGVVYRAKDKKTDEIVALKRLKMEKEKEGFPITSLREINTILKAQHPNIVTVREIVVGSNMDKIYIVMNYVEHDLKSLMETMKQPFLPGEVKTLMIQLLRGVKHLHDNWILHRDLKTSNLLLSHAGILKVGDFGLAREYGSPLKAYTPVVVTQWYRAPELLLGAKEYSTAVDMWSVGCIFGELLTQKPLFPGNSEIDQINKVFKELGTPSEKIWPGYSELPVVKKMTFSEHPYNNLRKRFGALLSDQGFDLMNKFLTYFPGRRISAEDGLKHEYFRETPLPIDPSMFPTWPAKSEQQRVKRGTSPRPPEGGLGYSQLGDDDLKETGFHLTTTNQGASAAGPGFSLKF

[6] = molecular target: Mitogen-activated protein kinase 8 (Homo sapiens, UniProt P45983); experiment: Selectivity interaction (SelectScreen profiling (Invitrogen)) EUB0000607a MAPK8; conditions: at 2 µM
[7] = molecular target: T3, Uncharacterized serine/threonine-protein kinase SBK3 (Homo sapiens) (UniProt P0C264); experiment: Selectivity interaction (KinomeScan (DiscoverX)) EUB0000666a SBK3; conditions: at 10 µM
T3 sequence (whole entry): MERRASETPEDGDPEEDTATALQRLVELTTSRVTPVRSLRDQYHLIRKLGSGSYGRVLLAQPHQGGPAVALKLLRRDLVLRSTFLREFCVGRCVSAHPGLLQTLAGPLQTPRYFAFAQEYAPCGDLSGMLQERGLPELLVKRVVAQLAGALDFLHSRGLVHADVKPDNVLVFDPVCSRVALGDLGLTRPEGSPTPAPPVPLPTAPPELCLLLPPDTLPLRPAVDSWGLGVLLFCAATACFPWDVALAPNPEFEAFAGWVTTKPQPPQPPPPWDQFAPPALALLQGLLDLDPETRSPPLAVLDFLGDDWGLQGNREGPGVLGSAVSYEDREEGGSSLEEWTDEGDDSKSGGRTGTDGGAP

Sequence of Leukocyte tyrosine kinase receptor (P29376 whole entry): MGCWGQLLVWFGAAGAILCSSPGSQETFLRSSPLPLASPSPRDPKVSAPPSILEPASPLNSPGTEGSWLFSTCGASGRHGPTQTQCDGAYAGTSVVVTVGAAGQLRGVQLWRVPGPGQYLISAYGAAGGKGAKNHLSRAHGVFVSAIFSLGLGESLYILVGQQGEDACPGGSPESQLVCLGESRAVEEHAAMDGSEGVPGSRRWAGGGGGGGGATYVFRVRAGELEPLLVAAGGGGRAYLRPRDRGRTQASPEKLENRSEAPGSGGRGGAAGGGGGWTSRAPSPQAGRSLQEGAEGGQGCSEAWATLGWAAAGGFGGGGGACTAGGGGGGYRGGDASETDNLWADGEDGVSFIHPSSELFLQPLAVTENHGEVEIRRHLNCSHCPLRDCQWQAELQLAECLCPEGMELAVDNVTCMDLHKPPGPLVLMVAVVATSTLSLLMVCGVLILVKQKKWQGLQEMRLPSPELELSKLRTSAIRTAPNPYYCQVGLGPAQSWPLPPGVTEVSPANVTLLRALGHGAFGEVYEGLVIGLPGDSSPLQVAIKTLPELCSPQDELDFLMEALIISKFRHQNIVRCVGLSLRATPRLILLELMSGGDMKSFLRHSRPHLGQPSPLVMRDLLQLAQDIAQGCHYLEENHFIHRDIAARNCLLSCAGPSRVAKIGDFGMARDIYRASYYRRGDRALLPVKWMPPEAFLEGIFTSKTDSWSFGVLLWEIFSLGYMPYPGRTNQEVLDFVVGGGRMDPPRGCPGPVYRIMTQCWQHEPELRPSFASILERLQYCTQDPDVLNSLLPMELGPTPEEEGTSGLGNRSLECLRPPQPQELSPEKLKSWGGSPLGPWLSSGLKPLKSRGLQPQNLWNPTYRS
Sequence of Casein kinase I isoform gamma-3 (Homo sapiens) (Q9Y6M4 whole entry, looked up, canonical isoform): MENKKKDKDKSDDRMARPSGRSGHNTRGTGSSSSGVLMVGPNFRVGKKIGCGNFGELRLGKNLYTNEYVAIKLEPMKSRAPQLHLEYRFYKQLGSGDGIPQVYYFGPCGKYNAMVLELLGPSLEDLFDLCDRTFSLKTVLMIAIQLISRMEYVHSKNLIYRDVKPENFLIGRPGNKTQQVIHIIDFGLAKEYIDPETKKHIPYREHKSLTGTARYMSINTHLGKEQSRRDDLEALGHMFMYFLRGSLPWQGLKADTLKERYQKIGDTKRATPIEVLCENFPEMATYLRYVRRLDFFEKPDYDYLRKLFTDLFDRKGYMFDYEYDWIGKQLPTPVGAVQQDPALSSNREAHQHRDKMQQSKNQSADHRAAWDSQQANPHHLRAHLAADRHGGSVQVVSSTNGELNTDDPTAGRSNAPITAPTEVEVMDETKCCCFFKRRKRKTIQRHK
Sequence of Calcium/calmodulin-dependent protein kinase type 1D (Homo sapiens) (Q8IU85 whole entry, looked up): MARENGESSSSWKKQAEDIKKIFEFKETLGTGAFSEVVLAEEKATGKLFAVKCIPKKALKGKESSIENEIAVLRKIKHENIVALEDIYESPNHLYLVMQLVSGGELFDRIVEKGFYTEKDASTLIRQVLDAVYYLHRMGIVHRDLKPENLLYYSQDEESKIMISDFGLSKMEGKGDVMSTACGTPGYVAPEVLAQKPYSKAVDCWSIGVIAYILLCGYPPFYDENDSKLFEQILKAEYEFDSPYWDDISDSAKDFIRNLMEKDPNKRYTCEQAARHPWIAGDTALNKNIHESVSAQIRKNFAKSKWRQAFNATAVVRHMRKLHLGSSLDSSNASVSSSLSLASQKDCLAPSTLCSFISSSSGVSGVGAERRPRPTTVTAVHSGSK
Sequence of Mitogen-activated protein kinase 8 (P45983 whole entry): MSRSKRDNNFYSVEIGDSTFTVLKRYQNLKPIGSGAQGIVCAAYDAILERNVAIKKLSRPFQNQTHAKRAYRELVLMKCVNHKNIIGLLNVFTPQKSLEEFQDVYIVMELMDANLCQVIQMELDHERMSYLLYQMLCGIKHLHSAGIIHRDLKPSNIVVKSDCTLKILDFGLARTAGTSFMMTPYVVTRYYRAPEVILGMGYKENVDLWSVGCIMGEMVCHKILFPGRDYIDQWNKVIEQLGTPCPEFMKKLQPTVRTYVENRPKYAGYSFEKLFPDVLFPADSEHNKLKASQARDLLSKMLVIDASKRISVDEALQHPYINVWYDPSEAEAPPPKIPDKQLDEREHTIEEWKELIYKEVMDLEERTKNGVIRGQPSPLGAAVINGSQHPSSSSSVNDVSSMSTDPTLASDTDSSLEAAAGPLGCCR

% of inhibition [1]: 3.1%
SMILES: CC[C@@H]1[C@H](F)C(=O)N[C@@H]1COc1nccc2cc(C(N)=O)c(OC)cc12 [ZIMLOVISERTIB]

SMILES: COc1cc(N(C)c2ccnc3ccc(C(F)(F)F)cc23)cc(OC)c1OC
% binding [2]: 86%

% of control ([3]; at 1 µM): 108%
% of control ([3]; at 5 µM): 99%
SMILES: C=CC(=O)Nc1cccc(C(=O)Nc2ccc(Nc3cc(-c4[nH]c(SC)nc4C)ccn3)cc2)c1

SMILES: CNC(=O)Nc1ccc(-c2nc(N3CC4CCC(C3)O4)c3cnn(C4CCC5(CC4)OCCO5)c3n2)cc1
% of inhibition [4]: 0%
% of control [5]: 100%
% of inhibition [6]: 12%

SMILES: O=C(NOC[C@H](O)CO)c1ccc(F)c(F)c1Nc1ccc(I)cc1F
% of control [7]: 100%
